Results: patent publication US11999803B2, “Proteasome inhibitors” (University of Kentucky Research Foundation, priority 2018, dated 2024)

Tests used:
LMP2 [1] = assay: LMP2 inhibition (figure legend); format: biochemical
[2] = system: APP transgenic mouse model of AD (Tg2576); assay: Passive avoidance test in Tg2576 mice; format: in vivo; details: Student's t-test, p-value<0.05, n=8
Description: (§1) FIG. 1A includes a schematic illustration showing the experimental schedule for a behavior test to assess cognitive impairment following administration of YU102 or YU102 epimer, as compared to control. YU102 is an inhibitor of the immunoproteasome subunit LMP2.
(§2) With reference to FIG. 1C, upon the completion of the Morris water maze test, Tg2576 mice were evaluated in the probe trial (left) and passive avoidance test (right). Statistical analyses of probe trial and passive avoidance were performed via Student's t-test.

[3] = system: APP transgenic mouse model of AD (Tg2576); assay: Probe trial in Tg2576 mice; format: in vivo; details: Student's t-test, p-value<0.05, n=8
Description: as §1, §2

[4] = system: LPS-stimulated BV-2 cells; assay: Cytokine and chemokine protein array in LPS-stimulated BV-2 cells; format: cell-based; details: 3 μM with LPS (1 μg/mL)
Description: With reference to FIG. 2, cytokine production was assessed in LPS-stimulated BV-2 cells. Cytokine and chemokine protein array blots were obtained from BV-2 cells treated with vehicle, LPS (1 μg/mL) alone, and YU102 (3 μM) or ONX0914 (3 μM) with LPS (1 μg/mL). The signal intensity of each cytokine or chemokine was expressed relative to the mean of the intensity of the corresponding spots from vehicle control sample. The bar graph depicts the fold change of each cytokine or chemokine (mean).

LMP2 [5] = molecular target: T1, LMP2 (Mus musculus, UniProt P28076); assay: Proteasome activities in tissue of treated mice, fluorogenic substrates; format: in vivo; details: Tg2576 mice, p-value<0.05, n=3
T1 construct: proteasome activities in brain, spleen, and liver tissue collected from mice treated with vehicle (control), YU102 (10 mg/kg); from tissue; host or cells: brain, spleen and liver tissue of Tg2576 mice
Description: With reference to FIG. 1D, proteasome activities in brain, spleen, and liver tissue collected from mice treated with vehicle (control), YU102 (10 mg/kg), or YU102 epimer (10 mg/kg) were measured using fluorogenic substrates.

[6] = system: APP transgenic mouse model of AD (Tg2576); assay: Morris water maze test in Tg2576 mice; format: in vivo
Description: as §1
With reference to FIG. 1B, cognitive function in Tg2576 mice was evaluated by the Morris water maze test, and escape latency time (left) and escape distance of the mice (right) was assessed. Statistical analyses of escape latency and escape distance were performed via two-way ANOVA.

Row | Compound | LMP2 inhibition (LMP2 [1]) | step through latency, difference between control and treated mice [2] | time spent in target quadrant, difference between control and treated mice [3] | cytokine production [4] | LMP2 inhibitory activity in spleen and liver tissues, difference between YU102-treated and YU102 epi-treated group (LMP2 [5]; 10 mg/kg each) | LMP2 inhibitory activity in spleen and liver tissues, difference between control and treated group (LMP2 [5]; 10 mg/kg) | cognitive deficits ([6]; APPsw (Tg2576) mice, FIGS. 1A-1D) | escape distance, difference between control and treated mice ([6]; Tg2576 mice, days 3-5, two-way ANOVA, p-value<0.05, n=8)
1 | CC(=O)NCC(=O)N1CCC[C@H]1C(=O)N[C@@H](Cc1ccccc1)C(=O)N[C@@H](CC(C)C)C(=O)[C@]1(C)CO1 [YU102 epi] | does not inhibit LMP2 |  |  |  |  |  |  | 
2 | CC(=O)NCC(=O)N1CCC[C@H]1C(=O)N[C@@H](Cc1ccccc1)C(=O)N[C@@H](CC(C)C)C(=O)[C@@]1(C)CO1 [YU102] | selective LMP2 inhibitor | statistically significant | statistically significant | suppression of cytokine production | statistically significant | statistically significant | amelioration of cognitive deficits | statistically significant
